Usually IC50 stands for the midpoint of a concentration-inhibition curve. Read a high IC50 as lower potency.

Results on six molecules are retold here after ChEMBL document CHEMBL5634194, “Novel Myeloperoxidase Inhibitors for Treating Multiple Diseases” (ACS Med Chem Lett, 2024).

The assay deals with T1, Myeloperoxidase (Homo sapiens, UniProt P05164).
T1 sequence (P05164 whole entry): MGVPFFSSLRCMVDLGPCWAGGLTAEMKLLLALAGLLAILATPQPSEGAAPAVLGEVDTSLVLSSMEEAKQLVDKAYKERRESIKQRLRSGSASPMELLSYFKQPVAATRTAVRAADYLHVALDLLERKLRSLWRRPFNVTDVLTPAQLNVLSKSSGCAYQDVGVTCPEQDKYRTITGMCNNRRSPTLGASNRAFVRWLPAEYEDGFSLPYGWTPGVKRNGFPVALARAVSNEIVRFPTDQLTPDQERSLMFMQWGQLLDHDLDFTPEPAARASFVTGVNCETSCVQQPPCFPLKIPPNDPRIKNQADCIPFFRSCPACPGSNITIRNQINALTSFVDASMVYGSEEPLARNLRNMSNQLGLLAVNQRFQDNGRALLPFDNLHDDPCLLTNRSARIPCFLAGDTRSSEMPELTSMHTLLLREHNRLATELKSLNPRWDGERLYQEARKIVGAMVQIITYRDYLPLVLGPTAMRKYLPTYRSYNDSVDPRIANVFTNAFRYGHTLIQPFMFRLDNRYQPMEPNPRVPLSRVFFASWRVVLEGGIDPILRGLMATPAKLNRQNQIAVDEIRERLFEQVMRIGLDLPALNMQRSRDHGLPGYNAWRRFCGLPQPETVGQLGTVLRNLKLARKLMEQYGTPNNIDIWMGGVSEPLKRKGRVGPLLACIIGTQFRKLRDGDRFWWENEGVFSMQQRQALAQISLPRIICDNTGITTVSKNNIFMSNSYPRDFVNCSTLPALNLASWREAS
The assay can be described thus: Inhibition of human MPO using H2O2 as substrate measured after 15 mins by chemiluminescence based assay.
As to `O=c1[nH]c(=S)n(Cc2ccccc2[C@@H]2C[C@H](C(F)F)CCN2)c2cc[nH]c12`, half-maximal inhibition (IC50) was put at 1 nM.

Consider `O=c1[nH]c(=S)n(Cc2ccccc2[C@H]2C[C@H](C(F)(F)F)CCN2)c2nc[nH]c12`, for which the midpoint of inhibition, the IC50, lay at 3 nM.

`O=c1[nH]c(=S)n(Cc2ccccc2[C@@H]2CC(F)(F)CCN2)c2cc[nH]c12` came in with an IC50 of 3 nM.

With `O=c1[nH]c(=S)n(Cc2ccccc2[C@@H]2CCCCN2)c2cc[nH]c12`, half-maximal inhibition (IC50) was put at 2 nM.

Molecule `O=c1[nH]c(=S)n(Cc2ccccc2[C@@H]2C[C@H](C(F)(F)F)CCN2)c2nc[nH]c12` returned a half-inhibitory concentration (IC50) of 2 nM. This lies in the single-digit nanomolar range.

In turn, `O=c1[nH]c(=S)n(Cc2ccccc2[C@H]2C[C@@H](C(F)(F)F)CCN2)c2cc[nH]c12` yielded an IC50 of 2 nM.
